Source: paper PMC6204900 (The Journal of Biological Chemistry, 2018)
“Also recorded” adds a separate entry of the source. Read-outs that look alike come from different tables or passages of the source.

Columns and labels:
IGF-1R [1] = target: T1, IGF-1R (Homo sapiens, UniProt P08069); experiment: Whole-cell receptor-binding assay, IGF-1R in transfected mouse embryonic fibroblasts
T1 construct: expressed in transfected cells; host or cells: CHO-K1 (ATCC) stably transfected with pcDNA3-IGF-1R vector (gift of R. O'Connor); polyclonal CHO-R+ population
Source text: (§1) Human IM-9 lymphocytes (containing IR-A) and IGF-1R null mouse embryonic fibroblasts, stably transfected with either human IR-B or human IGF-1R, were employed for a whole-cell receptor-binding assay as described previously ([32], [33], [42]). For details, see supporting information.
(§2) ULTIMATE 3000 RSLCnano (Dionex, Thermo Scientific) coupled to TripleTOFTM 5600 (SCIEX).
The extent of iodination in a specific position in the three fractions containing iodinated Tyr residues […]
was approximated by comparing the area of peaks corresponding to peptides containing TyrB16, […]
(§3) TyrB26 and TyrB32 and their iodinated counterparts.
Human IM-9 lymphocytes (containing IR-A) and IGF-1R null mouse embryonic fibroblasts, […]
stably transfected with either human IR-B or human IGF-1R, were employed for whole cell receptor- […]
binding assay as described previously (3-5). […]
binding buffer (100 mM HEPES, 100 mM NaCl, 5 mM KCl, 1.3 mM MgSO4, 1 mM EDTA, 10 mM […]
glucose, 15 mM NaOAc, 1 % w/v BSA, pH 7.6). After incubation 2 x 200 µL were centrifuged at […]
(§4) 15,000 x g for 10 min in microfuge tubes containing 200 µL of pre-cooled HEPES binding buffer.
Radioactive pellets were counted using the Gamma Counter Wizard 1470 (Perkin Elmer). Binding data […]
(§5) were analyzed by Excel software using a method of non-linear regression and a one-site fitting program […]
developed in the laboratory of Dr. Pierre De Meyts (A.V. Groth and R.M. Shymko, Hagedorn Research […]
Institute, Denmark, a kind gift of Pierre De Meyts). […]
set up to 0.3 nM. Receptor binding assays were performed under conditions excluding the depletion of […]
(§6) calculated using the two-tailed t test. […]
Following the incubation, the cells were washed twice with ice-cold binding buffer and solubilized with 0.1 M NaOH. Cell-associated radioactivity was counted using the Gamma Counter Wizard 1470 (Perkin Elmer). Binding data were analyzed by and the dissociation constant (Kd) was determined with GraphPad Prism 5 using a non-linear regression, a one-site fitting program and taking into account potential depletion of free ligand.
Each binding curve was determined […]

IR-A [2] = target: T2, IR-A (Homo sapiens, UniProt P06213); experiment: Whole-cell receptor-binding assay, IR-A in IM-9 lymphocytes; conditions: as E1; measurement series ≈; read-out: IR-A Kd ± S.D. (n)
T2 construct: host or cells: human IM-9 lymphocytes
Source text: as §1, §2
The extent of iodination in a specific position in the three fractions containing iodinated Tyr residues
was approximated by comparing the area of peaks corresponding to peptides containing TyrB16,
as §3
Human IM-9 lymphocytes (containing IR-A) and IGF-1R null mouse embryonic fibroblasts,
stably transfected with either human IR-B or human IGF-1R, were employed for whole cell receptor-
binding assay as described previously (3-5).
binding buffer (100 mM HEPES, 100 mM NaCl, 5 mM KCl, 1.3 mM MgSO4, 1 mM EDTA, 10 mM
glucose, 15 mM NaOAc, 1 % w/v BSA, pH 7.6). After incubation 2 x 200 µL were centrifuged at
as §4
Radioactive pellets were counted using the Gamma Counter Wizard 1470 (Perkin Elmer). Binding data
as §5, §6

IGF-1R [3] = target: T1, IGF-1R; experiment: Association, dissociation and accelerated dissociation kinetics of 125I-labeled ligands on IGF-1R in CHO-R+ cells; assay type: binding; conditions: for (d1) dissociation rate at maximum acceleration ± S.D., IGF-1R / dissociation rate (measured) ± S.D., IGF-1R: 15°C; for (d1) dissociation rate at maximum acceleration ± S.D., IGF-1R: dissociation of 125I-labeled ligand in the presence of 170 nM cold ligand (17 μM for insulin), monoexponential decay fit; for dissociation rate (measured) ± S.D., IGF-1R: dissociation of 125I-labeled ligand without cold ligand; for Shape of dose-response curve for accelerated dissociation, IGF-1R: 125I-labeled ligand preincubated […] at 15°C, cold ligand 0.001 nM-10 µM for 30 min at 15°C
Protocol: (§7) For details, see supporting information.
(§8) HEPES binding buffer. The use of bovine serum albumin in the binding buffer (e.g. Sigma-Aldrich […]
(§9) Following the incubation, the cells were washed twice with ice-cold binding buffer and solubilized with 0.1 M NaOH. Cell-associated radioactivity was counted using the Gamma Counter Wizard 1470 (Perkin […]
(§10) Each binding curve was determined
(§11) For dose-response curves for accelerated dissociation the cells (3 x 10^7/mL) in HEPES binding buffer were preincubated with the radio-labeled ligand (about 2500 Ci/mmol, 150,000 cpm/mL, about 0.03 nM) for 2.5 hours at 15°C. After the preincubation, the suspension was centrifuged at 1000 x g, 4°C for 5 min and the supernatant containing the unbound radioactivity was discarded. The pellet was resuspended in the initial volume of buffer.

IR-A [4] = target: T2, IR-A; experiment: Association, dissociation and accelerated dissociation kinetics of 125I-labeled ligands on IR-A in IM-9 cells; assay type: binding
Protocol: as §7, §8, §9, §10, §11

IGF-1R [5] = target: T1, IGF-1R; experiment: Ligand-dose response IGF-1R autophosphorylation, In-Cell Western assay; assay type: cell-based; conditions: 0.1-100 nM ligand, 20 min, relative to 10 nM IGF-1
Protocol: Ligand–dose response IGF-1R autophosphorylation levels for selected analogs were determined, using the In-Cell Western assay adapted for chemiluminescence as described ([34]). […] Experiments were repeated at least four times. Log(agonist) versus response curve fitting of data was carried out with GraphPad Prism 5.
Mean ± S.D. (n ≥ 4) values were calculated.
one-way analysis of variance (ANOVA) with Dunnett’s test comparing all analogs versus control i.e.
Ligand-dose response IGF-1R autophosphorylation levels for selected analogs were determined, using In-Cell Western assay adapted for chemiluminiscence as described in (6). The IGF-1R cells were plated at 20,000 cells/well in white 96-well Brand plates cell grade (Brand GMBH, Germany) and incubated for 24 hours. Cells were afterwards starved for 4 hours in serum-free media and stimulated with dilutions of ligands (0-100 nM) for 20 min. After the incubation, the medium was discarded and the cells were fixed in 3.75 % v/v freshly prepared formaldehyde for 20 min. […]
Then plates were thoroughly washed with TBS and incubated with peroxidase-labeled anti-rabbit secondary antibody (Sigma) for 1 hour at room temperature, and washed again. SuperSignal West Femto maximum sensitivity substrate was added to each well and chemiluminiscence was detected using the ChemiDoc MP Imaging System after 5 min. […]

IGF-1R [6] = target: T1, IGF-1R; experiment: Receptor phosphorylation assay (immunoblotting), IGF-1R-transfected mouse fibroblasts (R+39); assay type: cell-based; conditions: 10 nM ligand, 10 min, n ≥ 4
Source text: For details, see supporting information. […] Each experiment was repeated four times.

T2 sequence (P06213 28-1370 isoform P06213-2 limits assumed): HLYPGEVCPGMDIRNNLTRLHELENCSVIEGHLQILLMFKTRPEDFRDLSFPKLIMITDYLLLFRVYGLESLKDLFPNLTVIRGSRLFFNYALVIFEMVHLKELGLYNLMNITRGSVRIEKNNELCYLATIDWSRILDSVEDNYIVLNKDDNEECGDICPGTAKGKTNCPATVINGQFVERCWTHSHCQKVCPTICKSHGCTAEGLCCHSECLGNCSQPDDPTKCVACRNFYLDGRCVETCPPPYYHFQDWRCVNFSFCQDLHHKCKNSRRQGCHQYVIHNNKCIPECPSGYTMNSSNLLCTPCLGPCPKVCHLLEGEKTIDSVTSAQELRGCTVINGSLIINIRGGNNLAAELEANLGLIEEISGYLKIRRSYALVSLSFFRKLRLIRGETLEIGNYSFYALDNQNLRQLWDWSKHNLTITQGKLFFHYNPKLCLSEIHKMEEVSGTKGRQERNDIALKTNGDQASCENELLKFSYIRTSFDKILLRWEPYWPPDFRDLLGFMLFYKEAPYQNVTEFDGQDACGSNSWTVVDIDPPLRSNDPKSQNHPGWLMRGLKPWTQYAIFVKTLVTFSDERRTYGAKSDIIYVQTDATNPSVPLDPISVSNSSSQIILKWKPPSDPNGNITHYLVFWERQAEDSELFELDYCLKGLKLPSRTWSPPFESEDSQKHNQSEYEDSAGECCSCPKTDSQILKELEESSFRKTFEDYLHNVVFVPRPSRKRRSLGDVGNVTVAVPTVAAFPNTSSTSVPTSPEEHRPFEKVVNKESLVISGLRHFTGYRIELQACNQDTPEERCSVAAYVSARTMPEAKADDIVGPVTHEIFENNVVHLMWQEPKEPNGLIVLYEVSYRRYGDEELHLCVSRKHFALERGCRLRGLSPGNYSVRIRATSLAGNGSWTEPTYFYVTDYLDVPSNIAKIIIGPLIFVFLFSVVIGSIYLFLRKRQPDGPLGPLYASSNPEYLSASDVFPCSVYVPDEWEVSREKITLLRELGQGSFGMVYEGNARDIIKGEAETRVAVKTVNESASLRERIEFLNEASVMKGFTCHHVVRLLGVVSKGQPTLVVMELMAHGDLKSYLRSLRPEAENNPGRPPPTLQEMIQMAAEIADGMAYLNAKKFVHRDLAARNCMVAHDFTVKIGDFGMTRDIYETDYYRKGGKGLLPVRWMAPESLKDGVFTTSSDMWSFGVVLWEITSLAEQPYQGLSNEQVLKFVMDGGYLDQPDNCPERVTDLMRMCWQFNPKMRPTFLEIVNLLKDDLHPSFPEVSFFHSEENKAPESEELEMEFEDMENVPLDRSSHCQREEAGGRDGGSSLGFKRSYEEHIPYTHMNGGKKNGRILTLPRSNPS
T2 sequence (P06213 763-1382 partner limits assumed): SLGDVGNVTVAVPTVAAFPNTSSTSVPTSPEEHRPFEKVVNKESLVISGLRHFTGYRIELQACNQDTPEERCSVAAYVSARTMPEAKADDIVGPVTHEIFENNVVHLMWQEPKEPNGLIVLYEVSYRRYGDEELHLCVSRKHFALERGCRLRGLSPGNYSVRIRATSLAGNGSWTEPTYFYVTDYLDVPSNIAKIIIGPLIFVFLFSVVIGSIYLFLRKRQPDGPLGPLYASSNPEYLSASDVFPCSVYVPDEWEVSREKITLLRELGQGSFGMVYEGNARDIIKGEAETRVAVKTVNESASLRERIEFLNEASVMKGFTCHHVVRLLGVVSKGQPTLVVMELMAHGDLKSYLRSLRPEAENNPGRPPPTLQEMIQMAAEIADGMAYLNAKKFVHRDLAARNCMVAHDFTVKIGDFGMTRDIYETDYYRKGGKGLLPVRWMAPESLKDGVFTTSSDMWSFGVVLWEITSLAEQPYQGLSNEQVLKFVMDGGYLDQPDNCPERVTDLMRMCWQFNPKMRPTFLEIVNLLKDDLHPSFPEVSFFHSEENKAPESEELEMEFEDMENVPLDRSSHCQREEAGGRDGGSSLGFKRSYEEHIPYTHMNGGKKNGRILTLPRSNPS

Substance	Kd (IGF-1R [1]; IGF-1R null mouse embryonic fibroblasts transfected with human IGF-1R, competition with mono-125I-IGF-1 (about 0.01 nM), 16 h at 5°C, HEPES binding buffer, mean ± S.D. of n≥3 binding curves, measurement series #) [nM]	Kd (IR-A [2]) [nM]	Kd (IGF-1R [1]; as E12, measurement series $, read-out: IGF-1R Kd ± S.D. (n)) [nM]	Increase of binding to IGF-1R compared with insulin (IGF-1R [1]; from Table 1 binding affinities)	(d1) dissociation rate at maximum acceleration ± S.D., IGF-1R (IGF-1R [3]) [min⁻¹]	dissociation rate (measured) ± S.D., IGF-1R (IGF-1R [3]) [min⁻¹]	Shape of dose-response curve for accelerated dissociation, IGF-1R (IGF-1R [3])	(d1) dissociation rate at maximum acceleration ± S.D., IR-A (IR-A [4]; 15°C, dissociation of 125I-labeled ligand in the presence of 170 nM cold ligand, monoexponential decay fit) [min⁻¹]	dissociation rate (measured) ± S.D., IR-A (IR-A [4]; 15°C, dissociation of 125I-labeled ligand without cold ligand) [min⁻¹]	Shape of dose-response curve for accelerated dissociation, IR-A (IR-A [4]; 125I-labeled ligand preincubated […] at 15°C, cold ligand 0.001 nM-10 µM for 30 min at 15°C)	Dose-response of IGF-1R stimulation (IGF-1R [5])	Ability to stimulate IGF-1R phosphorylation (IGF-1R [6])
IGF-2: insulin-like growth factor 2, protein hormone closely related to insulin	2.32 ± 1.24	2.92 ± 0.24	–	–	–	–	–	–	–	–	–	–
[D-His^B24, Gly^B31, Tyr^B32]-insulin	–	–	0.89 ± 0.2	about 150 fold	0.0203 ± 0.0038	0.0064 ± 0.0035	sigmoid	0.0432 ± 0.0032	0.0017 ± 0.0002	bell-shaped	equipotent to IGF-2	increased stimulation of the receptor; also recorded: to an extent approximating IGF-2
insulin [reference compound]	–	–	–	–	0.0069 ± 0.0004	0.0026 ± 0.0010	sigmoid	–	–	–	–	–
